Experimental data as given in PubChem BioAssay AID248 (DTP/NCI, 2004).
Where “and” joins values, the source holds several entries; their conditions need not be identical. Equal values may be shown once. Inconclusive results and toxic doses are left out. Rule as the data show it: active = T/C of 150% or more; inactive = T/C below 125%.

System: L1210 leukemia ip in BDF1 mice, survival T/C
Experiment: NCI In Vivo Anticancer Drug Screen. Data for tumor model L1210 Leukemia (intraperitoneal) in B6D2F1 (BDF1) mice
Details: endpoint: mean survival time, higher = longer survival
How it was run: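 Survival endpoint. Drug-treated group vs vehicle group, expressed as T divided by C. Tumor passaged by transplantation.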

[1] = dose: 100.0 mg/kg/injection, schedule: Q01DX001 (ip), vehicle: saline with Tween-80
[2] = dose: 200.0 mg/kg/injection, schedule: Q01DX001 (ip), vehicle: saline with Tween-80
[3] = dose: 50.0 mg/kg/injection, schedule: Q01DX001 (ip), vehicle: carboxymethylcellulose (CMC)
[4] = dose: 100.0 mg/kg/injection, schedule: Q01DX001 (ip), vehicle: carboxymethylcellulose (CMC)
[5] = dose: 100.0 mg/kg/injection, schedule: Q04DX002 (ip), vehicle: other
[6] = dose: 200.0 mg/kg/injection, schedule: Q04DX002 (ip), vehicle: other
[7] = dose: 400.0 mg/kg/injection, schedule: Q04DX002 (ip), vehicle: other
[8] = dose: 100.0 mg/kg/injection, schedule: Q01DX009 (ip), vehicle: saline with Tween-80
[9] = dose: 200.0 mg/kg/injection, schedule: Q01DX009 (ip), vehicle: saline with Tween-80
[10] = dose: 100.0 mg/kg/injection, schedule: Q01DX009 (ip), vehicle: saline
[11] = dose: 200.0 mg/kg/injection, schedule: Q01DX009 (ip), vehicle: saline
[12] = dose: 25.0 mg/kg/injection, schedule: Q04DX003 (ip), vehicle: Klucel (hydroxypropylcellulose) (HPC)
[13] = dose: 50.0 mg/kg/injection, schedule: Q04DX003 (ip), vehicle: Klucel (hydroxypropylcellulose) (HPC)
[14] = dose: 100.0 mg/kg/injection, schedule: Q04DX003 (ip), vehicle: saline with Tween-80
[15] = dose: 200.0 mg/kg/injection, schedule: Q04DX003 (ip), vehicle: saline with Tween-80

Measured: T/C

CCCCCCCCCCCCNC(C1=C(O)c2ccccc2C(=O)C1=O)c1ccccc1 (centres undefined)
inactive: [1] 95 % of control | [2] 88 % of control | dose: 400.0 mg/kg/injection, schedule: Q01DX001 (ip), vehicle: saline with Tween-80 95 % of control

CC(=O)Nc1ccc2c(c1)C(N(C)C)c1ccccc1-2 (centres undefined)
inactive: [3] 101 % of control | [4] 106 % of control

CC(C)C1CCC(/C=C(\C#N)C2CCC([N+](=O)[O-])CC2)CC1 (centres undefined)
inactive: [5] 95 % of control | [6] 95 % of control | [7] 92 % of control

COc1ccc(NC(=O)CC(C)C(=O)O)cc1 (centres undefined)
inactive: [8] 102 % of control | [9] 90 % of control | dose: 400.0 mg/kg/injection, schedule: Q01DX009 (ip), vehicle: saline with Tween-80 104 % of control

NC(N)=N/N=C(/c1ccccc1)c1ccc2ccccc2c1
inactive: dose: 60.0 mg/kg/injection, schedule: Q01DX Z (oral), vehicle: methylcellulose (MC) 95 % of control | dose: 120.0 mg/kg/injection, schedule: Q01DX Z (oral), vehicle: methylcellulose (MC) 108 % of control | dose: 240.0 mg/kg/injection, schedule: Q01DX Z (oral), vehicle: methylcellulose (MC) 111 % of control | dose: 480.0 mg/kg/injection, schedule: Q01DX Z (oral), vehicle: methylcellulose (MC) 101 % of control | dose: 720.0 mg/kg/injection, schedule: Q01DX Z (oral), vehicle: methylcellulose (MC) 98 % of control | dose: 840.0 mg/kg/injection, schedule: Q01DX Z (oral), vehicle: methylcellulose (MC) 112 % of control

CC(=O)OC1CC(n2cc(C)c(=O)[nH]c2=O)OC1COP(=O)(N1CC1)N1CC1 (centres undefined)
inactive: dose: 50.0 mg/kg/injection, schedule: Q04DX002 (ip), vehicle: saline 107 % of control | dose: 200.0 mg/kg/injection, schedule: Q04DX002 (ip), vehicle: saline 112 % of control

NC(=O)NC(=O)c1ccccc1
inactive: [10] 96 % of control | [11] 101 % of control | dose: 400.0 mg/kg/injection, schedule: Q01DX009 (ip), vehicle: saline 106 % of control

Brc1ccc(C2=CSC3=NCCN23)cc1
inactive: [12] 96 % of control | [13] 96 % of control

CCOC(=O)/C=C(\CC(=O)OCC)Nc1ccc(C(=O)c2ccccc2)cc1
inactive: dose: 200.0 mg/kg/injection, schedule: Q01DX001 (ip), vehicle: saline 89 % of control

CC(=O)C(Cc1ccc(CC(C(C)=O)C(C)=O)cc1)C(C)=O
inactive: [14] 100 % of control | [15] 91 % of control | dose: 400.0 mg/kg/injection, schedule: Q04DX003 (ip), vehicle: saline with Tween-80 100 % of control

CC1(ON(c2cc(Cl)cc(Cl)c2)C2(C)c3ccccc3-c3ccccc32)c2ccccc2-c2ccccc21
inactive: [14] 88 % of control | [15] 97 % of control

CC(C)N1CSC(=S)N(C(C)C)C1
inactive: [5] 89 % of control | [6] 100 % of control | [7] 107 % of control

CCCCC(=O)N(C(C)C)C(C)C
inactive: dose: 50.0 mg/kg/injection, schedule: Q01DX009 (ip), vehicle: carboxymethylcellulose (CMC) 94 % of control and 103 % of control | dose: 100.0 mg/kg/injection, schedule: Q01DX009 (ip), vehicle: carboxymethylcellulose (CMC) 97 % of control and 102 % of control | dose: 100.0 mg/kg/injection, schedule: Q04DX002 (ip), vehicle: carboxymethylcellulose (CMC) 95 % of control and 98 % of control | dose: 200.0 mg/kg/injection, schedule: Q04DX002 (ip), vehicle: carboxymethylcellulose (CMC) 95 % of control

C/C(=N/NC(N)=S)c1ccc(Cl)cc1
inactive: dose: 5.0 mg/kg/injection, schedule: Q01DX001 (ip), vehicle: other 105 % of control | dose: 10.0 mg/kg/injection, schedule: Q01DX001 (ip), vehicle: other 111 % of control

CC(=O)OCCN1C(=O)CN=C(c2ccccn2)c2cc(Cl)ccc21
inactive: dose: 100.0 mg/kg/injection, schedule: Q01DX009 (ip), vehicle: Klucel (hydroxypropylcellulose) (HPC) 99 % of control | dose: 100.0 mg/kg/injection, schedule: Q04DX003 (ip), vehicle: Klucel (hydroxypropylcellulose) (HPC) 100 % of control | dose: 200.0 mg/kg/injection, schedule: Q01DX009 (ip), vehicle: Klucel (hydroxypropylcellulose) (HPC) 102 % of control | dose: 200.0 mg/kg/injection, schedule: Q04DX003 (ip), vehicle: Klucel (hydroxypropylcellulose) (HPC) 101 % of control | dose: 400.0 mg/kg/injection, schedule: Q01DX009 (ip), vehicle: Klucel (hydroxypropylcellulose) (HPC) 94 % of control | dose: 400.0 mg/kg/injection, schedule: Q04DX003 (ip), vehicle: Klucel (hydroxypropylcellulose) (HPC) 97 % of control

CCCn1nnc2ccccc2c1=Nc1ccccc1Cl
inactive: dose: 50.0 mg/kg/injection, schedule: Q01DX009 (ip), vehicle: saline 97 % of control | [10] 88 % of control | dose: 100.0 mg/kg/injection, schedule: Q04DX003 (ip), vehicle: saline 110 % of control | [11] 97 % of control | dose: 200.0 mg/kg/injection, schedule: Q04DX003 (ip), vehicle: saline 106 % of control | dose: 400.0 mg/kg/injection, schedule: Q04DX003 (ip), vehicle: saline 100 % of control

CCSC(C(OC(C)=O)C(OC(C)=O)C(OC(C)=O)C(COC(C)=O)OC(C)=O)n1cnc2c(=S)nc[nH]c21 (centres undefined)
inactive: dose: 100.0 mg/kg/injection, schedule: Q04DX003 (ip), vehicle: saline sonified 102 % of control | dose: 200.0 mg/kg/injection, schedule: Q04DX003 (ip), vehicle: saline sonified 96 % of control | dose: 400.0 mg/kg/injection, schedule: Q04DX003 (ip), vehicle: saline sonified 91 % of control

CC(=O)c1ccc2oc3ccccc3c2c1
inactive: dose: 100.0 mg/kg/injection, schedule: Q04DX002 (ip), vehicle: Klucel (hydroxypropylcellulose) (HPC) 97 % of control | dose: 200.0 mg/kg/injection, schedule: Q04DX002 (ip), vehicle: Klucel (hydroxypropylcellulose) (HPC) 100 % of control | dose: 400.0 mg/kg/injection, schedule: Q04DX002 (ip), vehicle: Klucel (hydroxypropylcellulose) (HPC) 93 % of control

Cc1cc(C)nc(NC(N)=NCCc2ccccc2)n1
inactive: dose: 12.5 mg/kg/injection, schedule: Q01DX009 (ip), vehicle: Klucel (hydroxypropylcellulose) (HPC) 101 % of control | dose: 12.5 mg/kg/injection, schedule: Q04DX003 (ip), vehicle: Klucel (hydroxypropylcellulose) (HPC) 102 % of control | dose: 25.0 mg/kg/injection, schedule: Q01DX009 (ip), vehicle: Klucel (hydroxypropylcellulose) (HPC) 101 % of control | [12] 100 % of control | dose: 50.0 mg/kg/injection, schedule: Q01DX009 (ip), vehicle: Klucel (hydroxypropylcellulose) (HPC) 101 % of control | [13] 102 % of control

CC1CN1P1(=O)OCC(C)([N+](=O)[O-])CO1 (centres undefined)
inactive: [3] 106 % of control | [4] 110 % of control | dose: 200.0 mg/kg/injection, schedule: Q01DX001 (ip), vehicle: carboxymethylcellulose (CMC) 104 % of control | dose: 400.0 mg/kg/injection, schedule: Q01DX001 (ip), vehicle: carboxymethylcellulose (CMC) 112 % of control

COc1ccc(OC)c2c1CCCC21OCCO1
inactive: dose: 50.0 mg/kg/injection, schedule: Q01DX009 (ip), vehicle: saline with Tween-80 105 % of control | [1] 95 % of control | [8] 102 % of control | [2] 96 % of control | [9] 100 % of control

CCCCNc1nnnn1CCCC
inactive: dose: 100.0 mg/kg/injection, schedule: Q04DX003 (ip), vehicle: acetone 98 % of control | dose: 200.0 mg/kg/injection, schedule: Q04DX003 (ip), vehicle: acetone 96 % of control
